Measurements as given in PMC7794297.
Values joined by “and” are separate entries in the source; they are usually repeats but may differ in a detail not shown here. Equal values may be shown once. Read-outs that look alike come from different tables or passages of the source.

Legend:
[1] = Equilibration of the thiol-disulfide DCL of building blocks 1-4 followed by HPLC-MS
Description: DMSO percentage is 2.5% v/v. […] DCLs were analyzed by HPLC-MS until equilibration without stirring at 6 °C.
Control DCL. […] DMSO percentage is 2.5% v/v. Regarding Secox catalyzed DCL, different stocks of Secox were carried out in order to study the percentages of Secox. […] The DCLs were prepared at 6 °C without stirring and analyzed in several hours until the complete stabilization.

[2] = Slow DCL system of building blocks 5-8, equilibration by HPLC-MS; conditions: slow DCL 5-8; 5% mol (18.3 μM); 20% (v/v) DMSO, pH 7.8, 6 °C; control 192 h
Description: To broaden the scope of selenocystine we tested this catalyst in a slow disulfide-exchange system. The DCL comprised 4 building blocks (5–8)[37], three of them being aliphatic thiols with pKa values around 9 to slow down the exchange reaction (Fig. 7a). Due to solubility issues, a 20% (v/v) DMSO was added and the reaction mixture was diluted. […] The different oligomers were identified by HPLC-MS (Supplementary Figs. 21–30).
Control DCL. […] The DCLs were analyzed until stabilization.

[3] = Spermine-templated DCL of building blocks 2 and 3; conditions: two building blocks DCL with spermine; 5% (mol); control 96 h
Description: (§1) Building blocks 2 and 3 equipped with carboxylate moieties to establish interactions with the protonated amine groups of the spermine were allowed to equilibrate at pH 7.8 and 6 °C (Fig. 8a). As expected in our control experiment, the major component in the absence of spermine was the linear tetramer (2)2(3)2. After the addition of spermine, the linear tetramer “decomposed” in order to form mainly the cyclic tetramer of (2)4, and the (3)2 dimer (Fig. 8a). As it was reported, several studies determined that the spermine was threaded through the macrocycle fixing the configuration to a highly symmetric stereoisomer of (2)4[36]. […] The precise composition of the DCL (with and without spermine), was assessed by measuring the relative peak area (RPA). Indeed, the normalized change of RPA was used to quantify the spermine influence in the outcome (Supplementary Fig. 42)[46]. The same template (spermine) was tested in our reference DCL of four building blocks (1–4) in the absence and presence of Secox (Fig. 8b). […] Additionally, two different templates were tested to confirm the absence of conflict between selenocystine and the templating effect. Spermidine and NADPH were introduced in our 4 building blocks DCL (1–4) in the absence and presence of Secox, leading to the amplification of different species and getting the same results as the non-catalyzed DCLs (Supplementary Figs. 44, 45, Supplementary Tables 7–10, and Supplementary Methods).
The DCL was stabilized at 96 h. […] The mixture was stabilized after 24 h. […] The DCL was stabilized at 96 h. […] The DCL was analyzed in 96 h after equilibration. DCLs were performed without stirring at 6 °C and analyzed by HPLC-MS.

[4] = Spermine-templated DCL of building blocks 1-4; conditions: four building blocks DCL with spermine; 5% mol
Description: as §1
The mixture was stabilized in 96 h. […] The mixture was stabilized after 24 h. […] It was stabilized in 24 h. […] DCL was equilibrated in 96 h. DCLs were performed without stirring at 6 °C and analyzed by HPLC-MS.

[5] = for Kobs: 190 μM 3, Tris pH 7.8, 6 °C
glucose oxidase (GOx) [6] = molecular target: T1, glucose oxidase (GOx) (Aspergillus niger, UniProt P13006); assay: GOx tolerance to Secox, Trp emission fluorescence; set-up: purchased Sigma Aldrich
T1 sequence (P13006 17-605): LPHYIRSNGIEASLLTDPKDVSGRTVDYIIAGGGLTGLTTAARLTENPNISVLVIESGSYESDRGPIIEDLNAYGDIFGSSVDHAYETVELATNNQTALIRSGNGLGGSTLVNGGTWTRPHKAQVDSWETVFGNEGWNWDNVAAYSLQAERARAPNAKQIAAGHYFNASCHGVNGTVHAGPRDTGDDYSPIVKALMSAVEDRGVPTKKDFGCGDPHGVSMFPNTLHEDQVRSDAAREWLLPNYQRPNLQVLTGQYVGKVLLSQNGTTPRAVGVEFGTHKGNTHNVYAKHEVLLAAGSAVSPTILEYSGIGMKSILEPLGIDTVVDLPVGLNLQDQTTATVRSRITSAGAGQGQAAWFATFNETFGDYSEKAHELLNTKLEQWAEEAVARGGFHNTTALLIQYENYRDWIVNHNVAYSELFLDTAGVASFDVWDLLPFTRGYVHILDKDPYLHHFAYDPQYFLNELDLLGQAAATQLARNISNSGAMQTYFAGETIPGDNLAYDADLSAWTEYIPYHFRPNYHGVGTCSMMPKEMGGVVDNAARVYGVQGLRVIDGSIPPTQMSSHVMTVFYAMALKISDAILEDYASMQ

scrambled RNase A [7] = molecular target: T2, scrambled RNase A (Bos taurus, UniProt P61823); assay: Folding of scrambled RNase A at pH 7.8 (cCMP hydrolysis); conditions: for V0: Secox / GSH 1 mM/5 mM
T2 sequence (P61823 27-150): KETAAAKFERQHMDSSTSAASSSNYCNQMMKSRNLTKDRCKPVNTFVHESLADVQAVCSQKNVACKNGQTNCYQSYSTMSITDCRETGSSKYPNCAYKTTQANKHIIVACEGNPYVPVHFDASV

scrambled RNase A [8] = molecular target: T2, scrambled RNase A; assay: Folding of scrambled RNase A at pH 5.4 (cCMP hydrolysis); conditions: in <2 h
glucose oxidase (GOx) [9] = molecular target: T1, glucose oxidase (GOx)
[10] = molecular target: bovine serum albumin (BSA) (Bos taurus, UniProt P02769); assay: BSA tolerance to DMSO, Trp emission fluorescence
Chain of bovine serum albumin (BSA) (P02769 25-607): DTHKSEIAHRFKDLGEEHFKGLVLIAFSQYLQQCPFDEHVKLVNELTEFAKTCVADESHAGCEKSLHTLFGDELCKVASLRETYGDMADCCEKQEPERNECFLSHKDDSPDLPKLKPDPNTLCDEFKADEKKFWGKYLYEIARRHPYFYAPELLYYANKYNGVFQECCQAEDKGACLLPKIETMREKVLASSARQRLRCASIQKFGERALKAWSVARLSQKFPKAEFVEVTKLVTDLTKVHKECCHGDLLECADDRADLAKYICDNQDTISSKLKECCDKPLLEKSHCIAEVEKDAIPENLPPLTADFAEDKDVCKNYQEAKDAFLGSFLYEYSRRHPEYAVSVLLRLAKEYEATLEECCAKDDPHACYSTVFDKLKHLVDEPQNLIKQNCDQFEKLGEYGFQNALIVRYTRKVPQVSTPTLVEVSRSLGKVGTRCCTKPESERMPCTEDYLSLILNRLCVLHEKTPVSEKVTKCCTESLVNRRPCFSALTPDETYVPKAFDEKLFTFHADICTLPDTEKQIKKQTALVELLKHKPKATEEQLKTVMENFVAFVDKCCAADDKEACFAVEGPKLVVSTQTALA

[11] = 10 % v/v DMSO, Supplementary Figure 48 b
[12] = 20 % v/v DMSO, Supplementary Figure 48 b
[13] = 60 % v/v DMSO, Supplementary Figure 48 b

## N[C@@H](C[Se][Se]C[C@H](N)C(=O)O)C(=O)O [Secox, selenocystine]
[1]; 190 μM as fifth building block, Tris 20 mM pH 7.8, 6 °C, control 4 days
  DCL equilibration time: 24 h
[1]; 1% mol (5.7 μM), pH 7.8, 6 °C, control 96 h
  DCL equilibration time: 72 h
[1]; 2.5% mol (14.25 μM), pH 7.8, 6 °C, control 96 h
  DCL equilibration time: 48 h
[1]; 5% mol (28.5 μM), pH 7.8, 6 °C, control 96 h
  DCL equilibration time: 24 h
[1]; 10% mol (57 μM), pH 7.8, 6 °C, control 96 h
  DCL equilibration time: 24 h
[2]
  DCL equilibration time: 60 h
[3]
  DCL equilibration time: 24 h
[4]
  DCL equilibration time: 24 h
[5]; 1% (mol), 2.5% (v/v) DMSO
  Kobs: 0.091 ± 0.002 M⁻¹ s⁻¹
[5]; 1% mol
  time until total completion of homodimerization: 3 days
[5]; 2.5% mol
  time until total completion of homodimerization: 2 days
[5]; 5% (mol) catalyst, 2.5% (v/v) DMSO, uncatalyzed 0.014 ± 0.001
  Kobs: 0.259 ± 0.009 M⁻¹ s⁻¹
[5]; 5% Secox
  acceleration over the uncatalyzed reaction: 18 fold
[5]; 5% mol
  time until total completion of homodimerization: 0.917 days and 1 days
[5]; 10% mol
  time until total completion of homodimerization: 0.75 days
Glucose oxidase (GOx) [6]; 1 % Secox
  Wavelenght (nm) of GOx Trp fluorescence emission (Supplementary Figure 47 b): 329 nm
Glucose oxidase (GOx) [6]; 2.5 % Secox
  Wavelenght (nm) of GOx Trp fluorescence emission (Supplementary Figure 47 b): 329 nm
Glucose oxidase (GOx) [6]; 5% Secox
  Wavelenght (nm) of GOx Trp fluorescence emission (Supplementary Figure 47 b): 329 nm
Glucose oxidase (GOx) [6]; 7.5 % Secox
  Wavelenght (nm) of GOx Trp fluorescence emission (Supplementary Figure 47 b): 329 nm
Glucose oxidase (GOx) [6]; 10 % Secox
  Wavelenght (nm) of GOx Trp fluorescence emission (Supplementary Figure 47 b): 329 nm
Glucose oxidase (GOx) [6]; 30 % Secox
  Wavelenght (nm) of GOx Trp fluorescence emission (Supplementary Figure 47 b): 329 nm
Glucose oxidase (GOx) [6]; 50 % Secox
  Wavelenght (nm) of GOx Trp fluorescence emission (Supplementary Figure 47 b): 329 nm
Glucose oxidase (GOx) [6]; 100 % Secox
  Wavelenght (nm) of GOx Trp fluorescence emission (Supplementary Figure 47 b): 329 nm
Glucose oxidase (GOx) [6]; whole range of concentrations measured, up to 100 % mol
  effect on GOx stability (Trp emission maximum): No shift was observed
Scrambled RNase A [7]; 20 mM Secox / 100 mM GSH, pH 7.8
  effect on scrambled RNase A folding: partial inactivation of the protein
Scrambled RNase A [7]; 33 min
  V0: 73.3333 min⁻¹
Scrambled RNase A [7]; 65 min
  V0: 91.6667 min⁻¹
Scrambled RNase A [7]; 95 min
  V0: 91.6667 min⁻¹
Scrambled RNase A [7]; 123 min
  V0: 100 min⁻¹
Scrambled RNase A [7]; 188 min
  V0: 101.667 min⁻¹
Scrambled RNase A [7]; 232 min
  V0: 98.3333 min⁻¹
Scrambled RNase A [7]; 356 min
  V0: 105 min⁻¹
Scrambled RNase A [7]; 1440 min
  V0: 101.667 min⁻¹
Scrambled RNase A [7]; pH 7.8, 1 mM Secox/5 mM GSH, first 65 min
  yield of the correctly folded enzyme: 92%
Scrambled RNase A [7]; scrambled RNase A
  increase of refolding rate by replacing GSSG with Secox: five times
Scrambled RNase A [8]
  yield of native RNase A: 75%

## C[S+](C)[O-] [DMSO]
Glucose oxidase (GOx) [9]
  DMSO concentration tolerated by GOx (no shift of Trp emission maximum): up to 20%
Glucose oxidase (GOx) [9]; 1 % v/v DMSO
  Fluorescence Emission (Average Value): 4921084
  Wavelenght (nm) of Trp emission maximum: 329 nm
Glucose oxidase (GOx) [9]; 2.5 % v/v DMSO
  Fluorescence Emission (Average Value): 5438068
  Wavelenght (nm) of Trp emission maximum: 329 nm
Glucose oxidase (GOx) [9]; 2.5 % v/v DMSO, Supplementary Figure 48 b
  Wavelenght (nm) of Trp emission maximum: 338 nm
Glucose oxidase (GOx) [9]; 5 % v/v DMSO
  Fluorescence Emission (Average Value): 4507601
  Wavelenght (nm) of Trp emission maximum: 329 nm
Glucose oxidase (GOx) [9]; 5 % v/v DMSO, Supplementary Figure 48 b
  Wavelenght (nm) of Trp emission maximum: 337 nm
Glucose oxidase (GOx) [9]; 7.5 % v/v DMSO
  Fluorescence Emission (Average Value): 4900904
  Wavelenght (nm) of Trp emission maximum: 329 nm
Glucose oxidase (GOx) [9]; 10 % v/v DMSO
  Fluorescence Emission (Average Value): 4964780
  Wavelenght (nm) of Trp emission maximum: 329 nm
Glucose oxidase (GOx) [9]; [11]
  Fluorescence Emission (at maximum): 7117020
  Wavelenght (nm) of Trp emission maximum: 336 nm
Glucose oxidase (GOx) [9]; 20 % v/v DMSO
  Fluorescence Emission (Average Value): 5321027
  Wavelenght (nm) of Trp emission maximum: 329 nm
Glucose oxidase (GOx) [9]; [12]
  Fluorescence Emission (at maximum): 7139475
  Wavelenght (nm) of Trp emission maximum: 335 nm
Glucose oxidase (GOx) [9]; 40 % v/v DMSO
  Fluorescence Emission (Average Value): 6356217
  Wavelenght (nm) of Trp emission maximum: 336 nm
Glucose oxidase (GOx) [9]; 50 % v/v DMSO
  Fluorescence Emission (Average Value): 10423932
  Wavelenght (nm) of Trp emission maximum: 337 nm
Glucose oxidase (GOx) [9]; 60 % v/v DMSO
  Fluorescence Emission (Average Value): 13490702
  Wavelenght (nm) of Trp emission maximum: 338 nm
Glucose oxidase (GOx) [9]; [13]
  Fluorescence Emission (at maximum): 8900408
  Wavelenght (nm) of Trp emission maximum: 327 nm
Glucose oxidase (GOx) [9]; 70 % v/v DMSO
  Fluorescence Emission (Average Value): 30698968
  Wavelenght (nm) of Trp emission maximum: 339 nm
Glucose oxidase (GOx) [9]; 80 % v/v DMSO
  Fluorescence Emission (Average Value): 28715570
  Wavelenght (nm) of Trp emission maximum: 344 nm
Glucose oxidase (GOx) [9]; 97 % v/v DMSO
  Wavelenght (nm) of Trp emission maximum: 349 nm
Glucose oxidase (GOx) [9]; 97 % v/v DMSO, Supplementary Figure 48 b
  Fluorescence Emission (at maximum): 24089455
[5]; 20% (v/v)
  time until total completion of homodimerization: 4 days
[5]; 20% (v/v) DMSO, 0% Secox
  Kobs: 0.068 ± 0.001 M⁻¹ s⁻¹
[10]
  DMSO concentration tolerated by BSA: up to 10%
